Laboratory results reported in patent US10091997B2, “Composition for inhibition of insect host sensing” (Vanderbilt University, priority 2010, dated 2018).

Assays:
AgORco+AgOR10 = assay: whole-cell patch clamp, HEK293 cells expressing AgORco+AgOR10; assay type: cell-based, Anopheles gambiae; settings: AgORco+AgOR10 cells
Protocol: (§1) Currents from OR-expressing HEK293 cells were amplified with an Axopatch 200b Amplifier (Axon Instruments) and digitized through a Digidata 1322A (Axon Instruments). Electrophysiological data was recorded and analyzed using pCLAMP 10 (Axon Instruments). Electrodes were fabricated from quartz tubing (Sutter Instruments) and pulled to 4-6 MΩ for whole cell recording. Electrodes were filled with internal solution (120 mM KCl, 30 mM D-glucose, 10 mM HEPES, 2 mM MgCl2, 1.1 mM EGTA, and 0.1 CaCl2 (pH 7.35, 280 mOsm). External (bath) solution contained 130 mM NaCl, 34 mM D-glucose, 10 mM HEPES, 1.5 mM CaCl2, 1.3 mM KH2PO4, and 0.5 MgSO4 (pH 7.35, 300 mOsm). Compounds were diluted in external solution and locally perfused to the recording cell using Perfusion Pencil (Automate Scientific) and controlled by a ValveLink 8.2 controller (Automate Scientific). Whole cell recordings were sampled at 10 kHz and filtered at 5 kHz. Outside-out patches were obtained using 10-15MΩ electrodes pulled from standard glass capillaries (World Precision Instruments) and fire-polished with an MF-830 micro forge (Narishige). Single channel recordings were sampled at 20 kHz. Recordings were reduced to 1 kHz and low-pass filtered at 500 Hz for display and analysis using QuB (SUNY at Buffalo).
(§2) To test the hypothesis that VUAA1 directly agonized AgORco, whole-cell patch clamp responses were examined in AgORco+AgOR10 expressing cells as well HEK293 cells stably expressing AgORco alone. […] The VUAA1-dependent currents in AgORco+AgOR10 cells resembled those resulting from application of benzaldehyde, an orthosteric agonist of AgOR10 (FIG. 3C) (Wang, 2010; Carey, 2010). AgORco+AgOR10 cells were more sensitive to VUAA1 than AgORco cells, producing inward currents at −5.0 log M, a concentration at which AgORco had no response. […] To investigate the specificity of VUAA1 agonism, the inventors transiently transfected HEK cells with the AgORco orthologs of Drosophila melanogaster and Heliothis virescens, DmOR83b and HvOR2 respectively.

AgORco = molecular target: T1, AgORco (Anopheles gambiae, UniProt Q7QCC7); assay: whole-cell patch clamp, HEK293 cells stably expressing AgORco alone; assay type: cell-based
T1 construct: expressed in transfected cells
T1 sequence (Q7QCC7 1-478): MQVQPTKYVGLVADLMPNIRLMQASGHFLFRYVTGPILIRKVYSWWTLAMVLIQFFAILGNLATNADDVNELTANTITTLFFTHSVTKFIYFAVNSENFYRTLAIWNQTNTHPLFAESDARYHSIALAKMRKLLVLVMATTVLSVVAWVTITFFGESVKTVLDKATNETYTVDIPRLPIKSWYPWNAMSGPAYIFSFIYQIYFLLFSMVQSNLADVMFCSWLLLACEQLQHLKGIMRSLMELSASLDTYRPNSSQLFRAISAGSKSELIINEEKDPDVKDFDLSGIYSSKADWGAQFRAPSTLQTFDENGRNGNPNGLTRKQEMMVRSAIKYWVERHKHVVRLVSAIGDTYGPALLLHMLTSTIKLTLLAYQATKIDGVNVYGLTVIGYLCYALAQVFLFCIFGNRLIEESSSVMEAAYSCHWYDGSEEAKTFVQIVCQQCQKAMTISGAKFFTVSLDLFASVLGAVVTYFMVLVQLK
Protocol: as §1, §2

HvOR2 = assay: whole-cell patch clamp, HEK cells transiently transfected with HvOR2; assay type: cell-based, Heliothis virescens; settings: HEK cells expressing HvOR2, −60 mV
Description: For transient transfections, ORs were cloned into pCI (Promega) and transfected into Flp-In™ T-REx™293 cell lines (Invitrogen) with Fu GENE6 (Roche). For the creation of stable cell lines, a cell culture expression vector capable of expressing AgORco in conjunction with a conventional OR, pcDNA5/FRT/TO (Invitrogen) was modified to create two individual expression cassettes each under the control of a separate CMV/TetO2 promoter and a BGH poly-adenylation signal. Cells (as above) were transfected with the modified pcDNA5 plasmid along with POG44 (a Flp recombinase expression plasmid) to facilitate site-specific recombination. Stable cell lines were selected using Hygromycin B (Invitrogen). Cells were maintained in DMEM (Invitrogen) supplemented with 10% Tetracycline-free FBS (HyClone) and 15 μg/ml Blasticidin. […] Baseline readings were taken for 20 s before automated addition of compound previously diluted in DMSO and assay buffer. […]
Currents from OR-expressing HEK293 cells were amplified with an Axopatch 200b Amplifier (Axon Instruments) and digitized through a Digidata 1322A (Axon Instruments). Electrophysiological data was recorded and analyzed using pCLAMP 10 (Axon Instruments). […]

[1] = molecular target: T2, rat transient receptor potential vanilloid 1 (rTRPV1) (Rattus norvegicus, UniProt O35433); assay: whole-cell patch clamp, HEK cells stably expressing rTRPV1; assay type: cell-based
T2 construct: expressed in transfected cells
Description: To determine the broad-spectrum specificity of VUAA1, the inventors tested VUAA1 on another non-selective cation channel, transient receptor potential vanilloid receptor 1 (TRPV1) (Caterina, 1997; Bohlen, 2010).

An. gambiae larvae = assay: larval behavioral (movement) bioassay, Ethovision; assay type: in vivo, Anopheles gambiae
Protocol: FIG. 9. VUAA1's larval activity threshold relative to DEET is 5 orders of magnitude lower and AgORco dependent. Larval activity in An. gambiae over 5 minutes monitored in 6-well culture plates using Ethovision (Noldus) software.
In order to address whether VUAA1 as a non-volatile could also evoke behavioral responses from An. gambiae, the inventors tested behavioral responses to VUAA1 on individual larval stage mosquitoes by adaptation of an olfactory based bioassay recently developed at Vanderbilt (described in Liu et al., 2010). These methods are non-invasive, and easily executed using a fully automated setup with an Ethovision® camera/software system (Noldus Information Technology to quantify the overall movement of mosquito larvae in response to uniform concentrations of chemicals. In these assays, increased overall movement can be interpreted as an aversive response (akin to agitation) that are consistent with those evoked by commercially available insect repellents such as DEET.

T2 sequence (O35433 whole entry): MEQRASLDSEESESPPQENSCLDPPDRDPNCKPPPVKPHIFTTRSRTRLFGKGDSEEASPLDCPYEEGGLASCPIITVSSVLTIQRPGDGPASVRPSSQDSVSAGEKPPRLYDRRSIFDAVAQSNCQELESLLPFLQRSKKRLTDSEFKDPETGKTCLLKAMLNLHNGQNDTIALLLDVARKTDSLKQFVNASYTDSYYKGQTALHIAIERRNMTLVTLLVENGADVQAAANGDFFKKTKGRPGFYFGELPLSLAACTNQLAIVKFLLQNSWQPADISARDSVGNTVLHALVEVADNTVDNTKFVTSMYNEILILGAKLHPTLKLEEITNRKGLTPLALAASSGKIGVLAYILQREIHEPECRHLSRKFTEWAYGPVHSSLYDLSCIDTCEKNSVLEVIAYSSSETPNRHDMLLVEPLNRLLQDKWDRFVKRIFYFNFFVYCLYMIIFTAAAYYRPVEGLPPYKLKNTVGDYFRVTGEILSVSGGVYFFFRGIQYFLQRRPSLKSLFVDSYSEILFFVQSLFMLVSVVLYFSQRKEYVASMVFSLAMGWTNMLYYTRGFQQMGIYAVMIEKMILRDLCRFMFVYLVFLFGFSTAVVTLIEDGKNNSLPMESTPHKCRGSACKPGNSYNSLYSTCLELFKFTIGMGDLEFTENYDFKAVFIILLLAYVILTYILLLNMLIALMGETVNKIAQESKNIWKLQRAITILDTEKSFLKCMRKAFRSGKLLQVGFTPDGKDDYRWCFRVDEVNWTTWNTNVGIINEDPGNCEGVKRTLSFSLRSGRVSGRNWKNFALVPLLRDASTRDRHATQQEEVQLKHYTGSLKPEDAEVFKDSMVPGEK

In the case of `CCc1ccc(NC(=O)CSc2nnc(-c3cccnc3)n2CC)cc1` [VUAA1], the whole-cell currents (AgORco+AgOR10; clamped at −60 mV) was “concentration-dependent inward currents”, the “concentration producing inward currents” value (AgORco+AgOR10; whole-cell) was −5.0 log M and the whole-cell currents (AgORco; AgORco alone cells, clamped at −60 mV) was “concentration-dependent inward currents”. For the same compound, the “whole-cell response at −5.0 log M” value (AgORco; AgORco alone cells, −5.0 log M) was “no response”, the reversal potential (AgORco; AgORco alone, mean±s.e.m.) was “+0.4±1.1 mV” and the whole-cell currents (HvOR2) was “robust inward currents”. For the same compound, the whole-cell currents [1] was “did not elicit currents”, the “larval behavioral responses (overall movement)” value (An. gambiae larvae; An. gambiae larvae, 5 minutes) was “robust responses” and the “larval response after AgORco silencing” value (An. gambiae larvae; larvae treated with AgOrco siRNAs) was “no longer respond”. The “larval response after mock or non-specific siRNA control injection” value (An. gambiae larvae; mock or non-specific siRNA control injection) was “retain their high sensitivity” and the “threshold of larval responses lower than DEET” value (An. gambiae larvae; relative to DEET) was 5 orders of magnitude.
